Data set [1] relates to MRC-5 human lung fibroblast cells. Format: cell-based. How it is done: 4. Cell culture and cytotoxicity test using MTS assay
(Seoul, South Korea), human keratinocytes (HaCaT) were provided by the Skin Research Institute R&D Center of Amore Pacific Company (Yongin, South Korea). All cells were grown in Dulbecco's modified Eagle’s medium (DMEM) supplemented with 10% fetal bovine serum at 37 °C in an atmosphere containing 5% CO2. The 3-(4,5-dimethylthiazol-2- […]
assays were used to determine the effects of peptoids on cell growth.[4] Aliquots (100 µL) of media containing 1.3×10^4 MRC-5 cells/mL or 3×10^4 HaCaT cells/mL were distributed into each well of a 96-well plate (Eppendorf, Hamburg, Germany). The cells were allowed to attach and were grown in a humidified atmosphere containing 5% CO2 at 37 °C for 24 h.
When the cell density reached approximately 70% confluency, the medium was replaced with serial dilutions of the peptoid stock in DMEM and incubated for an additional 24 h. At this point, 20 µL of the CellTiter 96 aqueous non-radioactive cell proliferation assay reagent (Promega, Madison, WI, USA), which contains the tetrazolium compound, was added to each well. Plates were incubated for 4 h at 37 °C to allow time for metabolism. The MTS-formazan products in viable cells were measured at 490 nm using a microplate reader, and the percentage of cell viability (%) was calculated by comparing readings to the values of untreated wells. Percentage values of cell viability were calculated as A/(A control)×100, where A is the absorbance of the test well and A control is the average absorbance of wells containing untreated cells. […]

Another data set deals with E. coli ML-35 cells. The data set can be described thus: ONPG hydrolysis assay (inner membrane). The following applies: 1.5 mM ONPG, 10 mM sodium phosphate pH 7.4, absorbance 405 nm. In kind it is cell-based. How it is done:
The permeability of the inner membrane was determined using E. coli ML-35 cells […]
The intact bacterial inner membrane is non-permeable to o-nitrophenyl-β-D-galactopyranoside (OPNG), a chromogenic substrate of the β-galactosidase.
Following damage to the inner membrane, OPNG enters the cells and is metabolized by β-galactosidase creating a chromogenic […]. E. coli cells were washed in 10 mM sodium phosphate (pH 7.4) containing 100 mM NaCl and resuspended in the same buffer at a final concentration of OD600 = 0.5 containing 1.5 mM ONPG. The hydrolysis of ONPG and generation of o-nitrophenol over time were monitored as absorbance change at 405 nm following the addition of peptoids. […]

The next data set deals with E. coli ATCC 25922. The data set can be described thus: Thioflavin S fluorescence imaging of intracellular aggregation. Format: cell-based. The conditions noted are these: 29 and peptoid 1 at 4 × MIC, control peptides 2 × MIC.
Data set [2] can be described thus: SAXS of peptoid self-assembly in aqueous environment. Format: physicochemical. The following applies: for self-assembly state in aqueous solution: aqueous environment. The method, then:
Prior to the experiment, peptoids were dissolved in Tris buffer (50 mM, pH 7.4). This peptoid stock solution (5 mg mL^−1) was diluted as needed. Unilamellar lipid vesicles were prepared using synthetic DMPC, DMPG, and DMPE‐PEG at a 75:22.5:2.5 molar ratio. The lipids were first dissolved in a 1:3 (v/v) methanol:chloroform solution. To make a lipid film, the organic solvents were removed completely under vacuum using a rotary evaporator with a Vacuubrand vacuum pump. The resulting lipid film was hydrated at 35 °C using Tris buffer (50 mM, pH 7.4). After hydration, the dispersion was sonicated for 15 min to promote the formation of smaller unilamellar vesicles. This was followed by the extrusion of lipid vesicles through a 100 nm pore diameter polycarbonate filter (>21 times) using an Avanti mini‐extruder fitted with two 1 mL airtight syringes. Immediately before the SAXS data collection, a peptoid solution with the adequate concentration for the target lipid:peptoid ratio was mixed 1:1 with the lipid solution (5 mg mL^−1) using a micropipette. SAXS experiments were performed at the automated BM29 bioSAXS beamline at the European Synchrotron Radiation Facility (ESRF) in Grenoble, France.^[ [47] ^] […] All experiments were conducted at 37 °C. The data set was calibrated to an absolute intensity scale using water as a primary standard. Samples (45 µL) were run through a capillary using the flow mode of the automated sample changer.^[ [48] ^] SAXS data was collected in ten successive frames of 0.5 s each to monitor radiation damage, and the data reduction was carried out using BioXTAS RAW program.^[ [49] ^]
All scattering models were implemented and fitted to the experimental SAXS data using the QtiSAS software.^[ [50] ^]

For another data set, the system named is S. aureus MRSA C623. In kind it is cell-based.
The subject of a further data set is K. pneumonia ESBL 61962. Format: cell-based.
Another data set deals with E. coli ESBL 63103. In kind it is cell-based.
The next data set concerns P. aeruginosa MDR-198. Format: cell-based.
Where [3] appears, read: SAXS, cylindrical α-helical bundle model, 5 mg mL^−1.

We go through 3 compounds from publication PMC10460844, “Real‐Time Monitoring of Multitarget Antimicrobial Mechanisms of Peptoids Using Label‐Free Imaging with Optical Diffraction Tomography” (Advanced Science, 2023).

Where two headings read alike, the source gives them in different places. Square brackets hold non-standard residues; d marks the D form. Peptide text beside a SMILES is read from it. Gly(N(CH2)2(3-indolyl)) = O=C(O)CNCCc1c[nH]c2ccccc12; Nspe = C[C@H](NCC(=O)O)c1ccccc1; Nlys = NCCCCNCC(=O)O

Regarding `C[C@@H](c1ccccc1)N(CC(N)=O)C(=O)CN(C(=O)CN(CCCCN)C(=O)CN(C(=O)CN(C(=O)CN(CCCCN)C(=O)CN(C(=O)CN(C(=O)CN(CCCCN)C(=O)CN(C(=O)CN(C(=O)CNCCCCN)[C@@H](C)c1ccccc1)[C@@H](C)c1ccccc1)[C@@H](C)c1ccccc1)[C@@H](C)c1ccccc1)[C@@H](C)c1ccccc1)[C@@H](C)c1ccccc1)[C@@H](C)c1ccccc1` [peptoid 1, reference compound] (H-[Nlys][Nspe][Nspe][Nlys][Nspe][Nspe][Nlys][Nspe][Nspe][Nlys][Nspe][Nspe]-NH2), the “LC50 MRC-5” value in data set [1] (MTS assay, 24 h exposure in DMEM, concentration killing 50% of cells) is 8.1 µM. The “inner membrane disruption (ONPG hydrolysis)” value (“inner membrane disruption” below) with E. coli ML-35 cells is given as “strongly disrupted”. Further, in the data set with E. coli ATCC 25922, the “Th S fluorescence (intracellular biomass aggregation)” value was “enhanced Th S fluorescence”.
Take `C[C@@H](c1ccccc1)N(CC(=O)N(CCCCN)CC(=O)N(CC(=O)N(CC(=O)N(CCCCN)CC(=O)N(CC(=O)N(CC(=O)N(CCCCN)CC(=O)N(CCc1c[nH]c2ccccc12)CC(=O)N(CCc1c[nH]c2ccccc12)CC(N)=O)[C@@H](C)c1ccccc1)[C@@H](C)c1ccccc1)[C@@H](C)c1ccccc1)[C@@H](C)c1ccccc1)C(=O)CN(C(=O)CNCCCCN)[C@@H](C)c1ccccc1` [peptoid 11] (H-[Nlys][Nspe][Nspe][Nlys][Nspe][Nspe][Nlys][Nspe][Nspe][Nlys][Gly(N(CH2)2(3-indolyl))][Gly(N(CH2)2(3-indolyl))]-NH2): the “self-assembly state in aqueous solution” value in data set [2] (SAXS, 5 mg mL^−1) was “larger defined nanostructures”. In data set [2] (setting [3]), this compound returned a fraction of dimers of 10%, a fraction of monomers of 30% and a fraction of trimers of 60%. In the data set on S. aureus MRSA C623, the “MIC S. aureus MRSA C623” value lay within 3.1 to 6.3 µM. Besides, in the data set with K. pneumonia ESBL 61962, the “MIC K. pneumonia ESBL 61962” value lay within 6.3 to 12.5 µM. The “LC50 MRC-5” value in data set [1] is 6.9 µM. Also, the “MIC E. coli ESBL 63103” value with E. coli ESBL 63103 lay in the range of 3.1 to 6.3 µM. Further, the “inner membrane disruption” value in the data set with E. coli ML-35 cells was “strongly disrupted”. In the data set with P. aeruginosa MDR-198, the “MIC P. aeruginosa MDR-198” value lay within 6.3 to 12.5 µM.
Take `C[C@@H](c1ccccc1)N(CC(=O)N(CCCCN)CC(=O)N(CCc1c[nH]c2ccccc12)CC(=O)N(CCc1c[nH]c2ccccc12)CC(N)=O)C(=O)CN(CCCCN)C(=O)CN(CCCCN)C(=O)CN(C(=O)CN(C(=O)CN(CCCCN)C(=O)CN(C(=O)CN(C(=O)CNCCCCN)[C@@H](C)c1ccccc1)[C@@H](C)c1ccccc1)[C@@H](C)c1ccccc1)[C@@H](C)c1ccccc1` [peptoid 29] (H-[Nlys][Nspe][Nspe][Nlys][Nspe][Nspe][Nlys][Nlys][Nspe][Nlys][Gly(N(CH2)2(3-indolyl))][Gly(N(CH2)2(3-indolyl))]-NH2): in data set [2] (SAXS fit, depending on concentration), the “fraction of big clusters” value is reported as 0.003–0.008. For the same compound, the radius of gyration in data set [2] (SAXS, Tris buffer 50 mM pH 7.4, 37 °C, random Gaussian chain model) is 10 Å. The “self-assembly state in aqueous solution” value in data set [2] (SAXS, 5 mg mL^−1) was “remained monomeric and unstructured”. Further, the “MIC S. aureus MRSA C623” value against S. aureus MRSA C623 was in the range of 3.1 to 6.3 µM. For the same compound, the “MIC K. pneumonia ESBL 61962” value against K. pneumonia ESBL 61962 is reported as more than 25 µM. For the same compound, in the data set on E. coli ESBL 63103, the “MIC E. coli ESBL 63103” value is listed as not below 25 µM. The “inner membrane disruption” value with E. coli ML-35 cells is listed as “lower than that seen with more hydrophobic peptoids”. Also, the “MIC P. aeruginosa MDR-198” value with P. aeruginosa MDR-198 was in the range of 6.3 to 12.5 µM. Moreover, in the data set on E. coli ATCC 25922, the “Th S fluorescence (intracellular biomass aggregation)” value was “significantly increased emission”.
